From patent US10975119B2, “Selective cysteine protease inhibitors and uses thereof” (Genesis Technologies Limited, priority 2011, dated 2021)
pIC50: −log10 of the molar value. Structures can show the parent of a compound that is named as a salt. Where two headings read alike, the source gives them in different places.

Columns and labels:
Assay type in all cases: biochemical
Caspase-2 = molecular target: T1, Caspase-2 (Homo sapiens, UniProt P42575); experiment: Caspase-2 inhibitor screening assay (BioVision kit, VDVAD-AFC); conditions: for inhibition at 10 µM: read-out: % Inhibition at 10 uM Casp2; for inhibition at 100 µM: read-out: % Inhibition at 100 uM Casp2; for pIC50: read-out: IC50 Casp2
T1 construct: mixing the compounds with the respective active caspases; purchased BioVision K152-100
T1 sequence (P42575 170-325 limits assumed): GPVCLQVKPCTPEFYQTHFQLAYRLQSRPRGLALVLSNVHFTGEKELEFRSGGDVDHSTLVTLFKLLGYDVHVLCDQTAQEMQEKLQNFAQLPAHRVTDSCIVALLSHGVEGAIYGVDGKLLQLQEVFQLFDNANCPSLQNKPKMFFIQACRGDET
T1 sequence (P42575 334-452 limits assumed): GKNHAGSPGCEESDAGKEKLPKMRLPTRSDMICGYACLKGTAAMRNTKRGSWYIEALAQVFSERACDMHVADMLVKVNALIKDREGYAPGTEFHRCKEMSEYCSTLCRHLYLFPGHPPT
Procedure: (§1) The efficacy of an array of compounds as an inhibitor of the activity of Caspases 1 through 10 were assessed by using the respective Caspase Inhibitor Drug Screening Kits (Caspase-1 Catalog #: K151-100, Caspase-2 Catalog #: K152-100, Caspase-3 Catalog #: K153-100, Caspase-4 Catalog #: K154-100, Caspase-5 Catalog #: K155-100, Caspase-6 Catalog #: K156-100, Caspase-7 Catalog #: K157-100, Caspase-8 Catalog #: K158-100, Caspase-9 Catalog #: K159-100, Caspase-10 Catalog #: K160-100, BioVision) following the instructions of the manufacturer. […] Active caspases cleaved their respective synthetic substrates to release free AFC, which was then quantified by fluorometry.
(§2) Briefly, the compounds were first tested at 2 concentrations (10 uM and 100 uM final) to determine if there is a hit. […] Each condition was tested in duplicates. […] For some samples, a smaller range of concentrations was tested depending on the % Inhibition results at 10 uM and 100 uM. Results were summarized in Tables 2, 3, and 4 herein after. Table 2 represents the IC50 values (uM) of the test compounds as inhibitors of the activity of the various caspases.
(§3) (*) RFU (no inhibitor control)—RFU (compound at a specific concentration)
(§4) RFU (no inhibitor control)

Caspase-9 = molecular target: T2, Caspase-9 (Homo sapiens, UniProt P55211); experiment: Caspase-9 inhibitor screening assay (BioVision kit, LEHD-AFC); conditions: for inhibition at 10 µM: read-out: % Inhibition at 10 uM Casp9; for inhibition at 100 µM: read-out: % Inhibition at 100 uM Casp9; for pIC50: read-out: IC50 Casp9
T2 construct: purchased BioVision K159-100
T2 sequence (P55211 1-315 limits assumed): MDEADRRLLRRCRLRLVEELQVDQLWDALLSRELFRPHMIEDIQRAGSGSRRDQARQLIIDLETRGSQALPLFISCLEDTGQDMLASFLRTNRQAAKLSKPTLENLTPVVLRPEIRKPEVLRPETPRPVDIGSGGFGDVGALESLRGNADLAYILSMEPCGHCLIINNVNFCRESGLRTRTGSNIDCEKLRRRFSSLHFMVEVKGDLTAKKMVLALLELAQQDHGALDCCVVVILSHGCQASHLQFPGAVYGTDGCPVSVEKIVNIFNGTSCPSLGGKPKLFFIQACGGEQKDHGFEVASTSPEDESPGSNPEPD
T2 sequence (P55211 331-416 limits assumed): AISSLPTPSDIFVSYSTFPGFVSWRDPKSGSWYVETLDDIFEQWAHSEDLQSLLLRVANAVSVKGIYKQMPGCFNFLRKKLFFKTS
Procedure: as §1, §2, §3, §4

Caspase-4 = molecular target: T3, Caspase-4 (Homo sapiens, UniProt P49662); experiment: Caspase-4 inhibitor screening assay (BioVision kit, LEVD-AFC); conditions: for inhibition at 10 µM: read-out: % Inhibition at 10 uM Casp4; for inhibition at 100 µM: read-out: % Inhibition at 100 uM Casp4; for pIC50: read-out: IC50 Casp4
T3 construct: mixing the compounds with the respective active caspases; purchased BioVision K154-100
T3 sequence (P49662 81-270 limits assumed): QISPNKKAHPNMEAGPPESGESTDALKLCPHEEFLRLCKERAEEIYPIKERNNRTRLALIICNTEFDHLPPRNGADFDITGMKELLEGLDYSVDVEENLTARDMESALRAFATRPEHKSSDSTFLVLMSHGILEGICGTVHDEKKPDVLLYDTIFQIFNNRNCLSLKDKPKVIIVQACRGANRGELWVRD
T3 sequence (P49662 290-377 limits assumed): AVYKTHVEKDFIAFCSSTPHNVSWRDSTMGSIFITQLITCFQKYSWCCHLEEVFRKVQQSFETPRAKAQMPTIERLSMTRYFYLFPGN
Procedure: as §1, §2, §3, §4

Compound	inhibition at 10 µM (Caspase-2)	inhibition at 100 µM (Caspase-2)	pIC50 (Caspase-2)	inhibition at 10 µM (Caspase-9; 10 uM)	inhibition at 100 µM (Caspase-9; 100 uM)	pIC50 (Caspase-9)	inhibition at 10 µM (Caspase-4)	inhibition at 100 µM (Caspase-4)	pIC50 (Caspase-4)	% Inhibition at 100 uM Casp9 (Caspase-9; 100 uM)	inhibition at 10 µM (Caspase-9)	inhibition at 100 µM (Caspase-9)
CS(=O)(=O)/C(Cl)=C/[C@@H](N)CC(=O)O [Compound 4, Asp achlorovinyl methyl vinyl sulfone, Tosyl Salt]	0%	0%	< 4.00			< 4.00	0%	0%	< 4.00		0%	0%
CS(=O)(=O)/C=C/[C@H](CC(=O)O)NC(=O)[C@H](CCC(=O)O)NC(=O)c1ccc2ccccc2n1 [Compound 18, 2-Quinoline carbonyl-Glu-Asp methyl vinyl sulfone]	0%	0%	< 4.00	0%	9%	< 4.00	0%	0%	< 4.00			
CC(C)(C)[C@H](NC(=O)c1ccc2ccccc2n1)C(=O)N1CC[C@@H]1C(=O)N[C@H](/C=C/S(C)(=O)=O)CC(=O)O [Compound 20, 2-Quinoline carbonyl-t-Leu-(Azetidine-2-carbonyl)-Asp methyl vinyl sulfone]	7%	6%	< 4.00	8%	44%	< 4.00	85%	100%	5.81			
CC(C)(C)OC(=O)CC[C@H](NC(=O)OC(C)(C)C)C(=O)N[C@H](/C=C/S(C)(=O)=O)CC(=O)OC(C)(C)C [Compound 21, Boc-Glu(O—tBu)-Asp (O—tBu)-methyl vinyl sulfone]	14%	18%	< 4.00	1%	10%	< 4.00	0%	4%	< 4.00			
CS(=O)(=O)/C=C/[C@H](CC(=O)O)NC(=O)[C@@H](N)CCC(=O)O [Compound 22, Glu-Asp methylsulfone]	12%	13%	< 4.00	2%	0%	< 4.00	0%	0%	< 4.00			
CS(=O)(=O)/C=C/[C@H](CC(=O)O)NC(=O)[C@H]1CCC(=O)N1 [Compound 24, (2-Pyrrolidinone-5-carbonyl)-Asp methyl vinyl sulfone]	0%	0%	< 4.00	0%	0%	< 4.00	1%	0%	< 4.00			
CC(C)[C@H](NC(=O)[C@H](Cc1cn(C)c2ccccc12)NC(=O)[C@H](CC(=O)O)NC(=O)OCc1ccccc1)C(=O)N[C@H](/C=C/S(C)(=O)=O)CC(=O)O [Compound 36, Z-Asp-Trp(N-Me)-Val-Asp-methyl vinyl sulfone]	0%	19%	< 4.00	39%	87%	4.77	57%	99%	5.04			

The next lines start with results.

inhibition at 10 µM (Caspase-2)	inhibition at 100 µM (Caspase-2)	pIC50 (Caspase-2)	inhibition at 10 µM (Caspase-9; 10 uM)	inhibition at 100 µM (Caspase-9; 100 uM)	pIC50 (Caspase-9)	inhibition at 10 µM (Caspase-4)	inhibition at 100 µM (Caspase-4)	pIC50 (Caspase-4)	% Inhibition at 100 uM Casp9 (Caspase-9; 100 uM)	Compound	inhibition at 10 µM (Caspase-9)	inhibition at 100 µM (Caspase-9)
3%	5%	< 4.00	24%	73%	4.33	88%	100%	6.20		CC(C)(C)[C@H](NC(=O)c1ccc2ncccc2n1)C(=O)N1CCCC1C(=O)N[C@H](/C=C/S(C)(=O)=O)CC(=O)O (stereo in doubt) [Compound 8, (1,5-Naphthyridine-2-carbonyl)-t-Leu-Pro-Asp methyl vinyl sulfone]		
3%	6%	< 4.00	76%	98%	5.49	91%	100%	5.72		CC(C)(C)[C@H](NC(=O)c1ccc2ncccc2c1)C(=O)N1CCCC1C(=O)N[C@H](/C=C/S(C)(=O)=O)CC(=O)O (stereo in doubt) [Compound 10, Quinoline-6-carbonyl-t-Leu-Pro-Asp methyl vinyl sulfone]		
22%	79%	4.52	54%	93%	5.04	73%	100%	5.28		CS(=O)(=O)/C=C/[C@H](CC(=O)O)NC(=O)C1CCCN1C(=O)[C@@H](NC(=O)[C@H](CC(=O)O)NC(=O)OCc1ccccc1)C1CC1 (stereo in doubt) [Compound 28, Z-Asp-Cyclopropylglycine-Pro-Asp-methyl vinyl sulfone]		
0%	0%	< 4.00	16%	66%	4.29	0%	6%	< 4.00	70%	CC(C)[C@H](NC(=O)OCc1ccccc1)C(=O)N[C@H](/C=C(\Cl)S(C)(=O)=O)CC(=O)O [Compound 2, Cbz-Val-Asp achlorovinyl methyl vinyl sulfone]		
0%	0%	< 4.00	0%	17%	< 4.00	0%	2%	< 4.00		CC(C)[C@H](NC(=O)OCc1ccccc1)C(=O)N[C@H](/C=C/S(C)(=O)=O)CC(=O)O [Compound 3, Z-Val-Asp methyl vinyl sulfone]		
1%	3%	< 4.00	0%	0%	< 4.00	0%	0%	< 4.00		CC(C)[C@H](NC(=O)c1ccc2ccccc2n1)C(=O)N[C@H](/C=C/S(C)(=O)=O)CC(=O)O [Compound 16, 2-Quinoline carbonyl-Val-Asp methyl vinyl sulfone]		
11%	66%	4.27	48%	92%	4.97	50%	100%	5.00		CS(=O)(=O)/C=C/[C@H](CC(=O)O)NC(=O)[C@H]1CCCN1C(=O)[C@@H](NC(=O)[C@H](CC(=O)O)NC(=O)OCc1ccccc1)c1ccccc1 [Compound 30, Z-Asp-Phenylglycine-Pro-Asp-methyl vinyl sulfone]		
43%	86%	4.88	91%	100%	5.95	76%	100%	5.25		CC(C)(C)[C@@H](NC(=O)[C@H](CC(=O)O)NC(=O)OCc1ccccc1)C(=O)N1CC[C@@H]1C(=O)N[C@H](/C=C/S(C)(=O)=O)CC(=O)O [Compound 32, Z-Asp-t-Leu-(Azetidine-2-carbonyl)-Asp-methyl vinyl sulfone]		
